According to patent US9017950B2, “Method for enhancing enzyme assays” (Luminescent MD, LLC, priority 2011, dated 2015):

Key:
Format in all cases: biochemical
[1] = target: T1, PSA detection antibody-HRP conjugate (Armoracia rusticana, UniProt P00433); experiment: Quantification of PSA using PSA detection antibody-HRP conjugate and OD4MI CL detection (CLEIA) in the presence of catalyst
T1 construct: PSA detection antibody (conjugated)
T1 sequence (P00433 31-338 limits assumed): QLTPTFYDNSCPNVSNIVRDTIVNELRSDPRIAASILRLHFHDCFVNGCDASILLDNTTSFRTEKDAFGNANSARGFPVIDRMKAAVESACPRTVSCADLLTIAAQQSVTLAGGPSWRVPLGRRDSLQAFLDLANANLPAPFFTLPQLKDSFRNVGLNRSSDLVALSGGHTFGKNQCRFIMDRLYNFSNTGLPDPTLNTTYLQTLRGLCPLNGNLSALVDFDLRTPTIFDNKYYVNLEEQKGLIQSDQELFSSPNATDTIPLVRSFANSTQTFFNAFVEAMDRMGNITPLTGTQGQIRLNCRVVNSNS
Method: (§1) AccuLite® CLIA kit capable of quantifying PSA with luminol CL detection was used to develop new CLEIA method using ODI derivative CL detection. The kit is composed of 96 strip wells coated with monoclonal PSA primary antibody, PSA detection antibody-HRP conjugate, luminol as a substrate, reaction buffer, and washing buffer.
8 different PSA serum samples (0, 0.5, 1, 2, 5, 10, 25, 50 ng/ml), components of AccuLite® CLIA kit, were used as standard samples.
2.0 μM Amplex® Red reagent and 0.2 mM H2O2 in deionized water were prepared as described in Example 1 (A).
0.5 mM 4-Iodophenol was prepared in Tris-HCl buffer solution (pH 8.5).
2.0 mM 4-(1,2,4-triazol-1-yl) phenol was prepared in Tris-HCl buffer solution (pH 8.5).
0.8 ml of aqueous solution containing Amplex® Red reagent (2.0 μM) and H2O2 (0.2 mM) was mixed with 0.2 ml of 4-Iodophenol (or 2.0 mM 4-(1,2,4-triazol-1-yl) phenol).
(§2) OD4MI was formed from the reaction between 5.0 μM TCPO and 10.0 μM 4-Methylimidazole (4MImH) in Ethyl acetate. 100 mM H2O2 was prepared in Isopropyl alcohol.
• 12. Pipette 25 μl of PSA standard or test sample into a strip well. • 13. Add 100 μl of PSA detection antibody-HRP conjugate to the strip well • 14. Swirl the strip wells for 20 seconds. • 15. Incubate for 20 minutes at 37° C. • 16. Discard the contents of each strip wells. • 17. Wash each plate with 300 μl washing buffer. Repeat four additional times. • 18. Add 100 μl working solution containing 2.0 μM Amplex® Red reagent and 0.2 mM H2O2 to each strip well. • 19. Incubate the strip-well containing Amplex® Red reagent, H2O2, and 4-Iodophenol (or 2.0 mM 4-(1,2,4-triazol-1-yl) phenol) for 5.0 minutes at room temperature (21˜23° C.) in the dark. • 20. Pipette 10 μl of working solution into the assigned test tube (12×75 mm). • 21. Insert the test tube into a luminometer or the strip well into a microplate luminometer. • 22. Read (integration time: 0.5 seconds) emitted CL for 0.5 seconds when OD4MI and H2O2 are added into the test tube or strip well through two dispensers.

HRP = target: T2, HRP (Armoracia rusticana, UniProt P00433); experiment: Enzyme assay with OD4MI CL detection to quantify HRP in the presence of surfactant; settings: for dynamic range of enzyme assay for quantifying HRP compared with absence of surfactant: surfactant at critical micelle concentration
T2 construct: purchased Sigma
T2 sequence (P00433 31-338 limits assumed): T1 sequence (P00433 31-338 limits assumed)
Method: Various concentrations (0.5, 1.0, and 1.5%) of Triton® X surfactant derivatives (Triton® X-100, Triton® X-114, Triton® X-405, and Triton® X-705) were prepared in Tris-HCl buffer solution (pH 8.5).
Various surfactants (e.g., (2-Hydroxypropyl)-β-cyclodetrin, β-cyclodextrin, Carboxymethyl-β-cyclodextrin, Carbomethyl-β-cyclodextrin sodium salt, γ-cyclodextrin, Sodium dodecyl sulfate, Hexadecyltrimethylammonium bromide, Hexadecyltrimethylammonium chloride) of critical micelle concentration (CMC) were prepared in Tris-HCl buffer solution (pH 8.5).
As a substrate for ODI derivative CL detection, 2.0 μM Amplex® Red reagent in deionized water was prepared.
Various concentrations (0˜0.1 U/ml) of HRP containing 2.0 mM H2O2 was prepared in Tris-HCl buffer solution (pH 8.5).
1,1′-Oxalyldi-4-methyl-imidazole (OD4MI), one of ODI derivatives was formed from the reaction between 5.0 μM TCPO, and 10.0 μM 4-Methylimidazole (4MImH) in Ethyl acetate. 100 mM H2O2 was prepared in Isopropyl alcohol.
• 5. Mix and incubate 0.8 ml of Amplex® Red reagent (or deionized water), 0.1 ml of surfactant, one of various surfactants used in this research, and 0.1 ml of HRP containing H2O2 for 10 minutes in a 1.5 ml-centrifuge tube at room temperature. • 6. Pipette 10 μl of working solution into the assigned test tube (12×75 mm) or strip well. • 7. Insert the test tube into a luminometer or the strip well into a microplate luminometer. • 8. Read CL emitted when OD4MI and H2O2 are added into the test tube or strip well through two dispensers.

[2] = target: T3, AFP detection antibody-HRP conjugate (Armoracia rusticana, UniProt P00433); experiment: Quantification of AFP using AFP detection antibody-HRP conjugate and OD4MI CL detection in the presence of Triton X-100; settings: 0.1% Triton X-100, OD4MI CL detection, FIG. 6
T3 construct: AFP detection antibody (conjugated)
T3 sequence (P00433 31-338 limits assumed): T1 sequence (P00433 31-338 limits assumed)
Method: as §1, with “AFP” for “PSA”, “OD4MI” for “ODI derivative”, “detection in the presence of 0.1% Triton® X-100 surfactant.” for “detection.”
2.0 μM Amplex® Red reagent and 0.2 mM H2O2 in deionized water were prepared in water containing 0.1% Triton® X-100 surfactant.
as §2
• 12. Pipette 25 μl of AFP standard or test sample into a strip well. • 13. Add 100 μl of AFP detection antibody-HRP conjugate to the strip well • 14. Swirl the strip wells for 20 seconds. • 15. Incubate for 30 minutes at 37° C. • 16. Discard the contents of each strip wells. • 17. Wash each plate with 300 μl washing buffer. Repeat four additional times. • 18. Add 100 μl working solution containing 2.0 μM Amplex® Red reagent, 0.2 mM H2O2 and 0.1% Triton® X-100 surfactant in the strip well. • 19. […] Read (integration time: 0.5 seconds) emitted CL for 0.5 seconds when OD4MI and H2O2 are added into the test tube or strip well through two dispensers.

Compound | dynamic range of enzyme assay for quantifying HRP compared with absence of surfactant (HRP; OD4MI CL detection) | also measured
Oc1ccc(-n2cncn2)cc1 [4-(1,2,4-triazol-1-yl) phenol] | – | LOD, times lower than in the absence of catalyst [1]: ~10 times
Oc1ccc(I)cc1 [4-Iodophenol] | – | LOD, times lower than in the absence of catalyst [1]: about 20 times; LOD, times lower than in the presence of 4-(1,2,4-triazol-1-yl) phenol [1]: about 2 times
CCCCCCCCCCCCCCCC[N+](C)(C)C.[Br-] [Hexadecyltrimethylammonium bromide] | wider than that in the absence of surfactant | –
CCCCCCCCCCCCCCCC[N+](C)(C)C.[Cl-] [Hexadecyltrimethylammonium chloride] | wider than that in the absence of surfactant | –
CCCCCCCCCCCCOS(=O)(=O)[O-].[Na+] [Sodium dodecyl sulfate] | wider than that in the absence of surfactant | –
OC[C@H]1O[C@@H]2O[C@H]3[C@H](O)[C@@H](O)[C@@H](O[C@H]4[C@H](O)[C@@H](O)[C@@H](O[C@H]5[C@H](O)[C@@H](O)[C@@H](O[C@H]6[C@H](O)[C@@H](O)[C@@H](O[C@H]7[C@H](O)[C@@H](O)[C@@H](O[C@H]8[C@H](O)[C@@H](O)[C@@H](O[C@H]1[C@H](O)[C@H]2O)O[C@@H]8CO)O[C@@H]7CO)O[C@@H]6CO)O[C@@H]5CO)O[C@@H]4CO)O[C@@H]3CO [β-cyclodextrin] | wider than that in the absence of surfactant | –
OC[C@H]1O[C@@H]2O[C@H]3[C@H](O)[C@@H](O)[C@@H](O[C@H]4[C@H](O)[C@@H](O)[C@@H](O[C@H]5[C@H](O)[C@@H](O)[C@@H](O[C@H]6[C@H](O)[C@@H](O)[C@@H](O[C@H]7[C@H](O)[C@@H](O)[C@@H](O[C@H]8[C@H](O)[C@@H](O)[C@@H](O[C@H]9[C@H](O)[C@@H](O)[C@@H](O[C@H]1[C@H](O)[C@H]2O)O[C@@H]9CO)O[C@@H]8CO)O[C@@H]7CO)O[C@@H]6CO)O[C@@H]5CO)O[C@@H]4CO)O[C@@H]3CO [γ-cyclodextrin] | wider than that in the absence of surfactant | –
(2-Hydroxypropyl)-β-cyclodetrin | wider than that in the absence of surfactant | –
Carbomethyl-β-cyclodextrin sodium salt | wider than that in the absence of surfactant | –
Carboxymethyl-β-cyclodextrin | wider than that in the absence of surfactant | –
Triton® X-100 | – | dynamic range to quantify HRP compared with other Triton X derivatives (HRP; 1.0% surfactant, FIG. 5): wider than those in other Triton® X surfactant derivatives; effect on the reaction between Amplex Red reagent and H2O2 in the presence of HRP (HRP; OD4MI CL detection, FIG. 3 to 5): acting to interfere; dynamic range of enzyme assay to quantify HRP, upper end (HRP; higher Triton X-100 concentration, OD4MI CL detection, room temperature, FIG. 3): up to 0.1 U/ml; linear dynamic range for quantification of AFP [2]: 0˜1250 ng/ml
